Reference: patent publication US20220289766A1 (INFLAZOME LIMITED, priority 2019, published 2022)
Structures can show the parent of a compound that is named as a salt.

Tests used:
NLRP3 [1] = target: T1, NLRP3 (Homo sapiens, UniProt Q96P20); assay: THP-1 cells pyroptosis assay; format: cell-based; design: Seed THP-1 cells (25,000 cells/well) containing 1.0 μg/ml LPS in 40 μl of RPMI medium; host or cells: THP-1 cells; conditions: LPS 1 μg/ml, compound 3 hrs, nigericin 5 μM 1 hr, resazurin readout
T1 sequence (Q96P20 whole entry): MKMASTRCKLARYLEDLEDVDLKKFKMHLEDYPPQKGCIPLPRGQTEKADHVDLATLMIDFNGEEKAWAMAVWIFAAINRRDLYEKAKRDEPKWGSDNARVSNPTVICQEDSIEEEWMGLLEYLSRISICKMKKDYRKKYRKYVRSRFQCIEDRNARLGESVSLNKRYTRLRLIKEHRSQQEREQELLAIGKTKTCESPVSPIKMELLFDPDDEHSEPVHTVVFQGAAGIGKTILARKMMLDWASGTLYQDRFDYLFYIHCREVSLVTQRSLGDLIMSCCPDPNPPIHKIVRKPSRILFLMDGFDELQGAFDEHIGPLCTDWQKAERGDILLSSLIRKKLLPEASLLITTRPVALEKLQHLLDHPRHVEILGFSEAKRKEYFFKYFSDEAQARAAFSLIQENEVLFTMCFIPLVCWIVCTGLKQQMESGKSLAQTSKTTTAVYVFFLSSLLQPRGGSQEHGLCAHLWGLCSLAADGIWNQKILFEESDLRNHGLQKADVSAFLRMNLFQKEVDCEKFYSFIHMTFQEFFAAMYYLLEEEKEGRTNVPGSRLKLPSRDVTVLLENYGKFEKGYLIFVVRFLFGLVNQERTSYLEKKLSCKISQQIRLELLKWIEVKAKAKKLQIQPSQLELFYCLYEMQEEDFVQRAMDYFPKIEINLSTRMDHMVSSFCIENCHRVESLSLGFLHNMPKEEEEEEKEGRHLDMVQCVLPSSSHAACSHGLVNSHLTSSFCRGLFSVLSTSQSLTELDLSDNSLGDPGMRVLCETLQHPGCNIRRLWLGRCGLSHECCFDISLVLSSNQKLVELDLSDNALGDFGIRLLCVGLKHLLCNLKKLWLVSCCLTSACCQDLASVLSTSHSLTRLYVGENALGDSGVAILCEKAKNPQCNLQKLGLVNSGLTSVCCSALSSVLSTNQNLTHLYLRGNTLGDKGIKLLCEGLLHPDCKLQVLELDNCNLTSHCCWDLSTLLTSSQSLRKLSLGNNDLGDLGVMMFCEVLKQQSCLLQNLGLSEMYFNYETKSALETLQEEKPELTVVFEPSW
Description: THP-1 cells (ATCC #TIB-202) were grown in RPMI containing L-glutamine (Gibco #11835) supplemented with 1 mM sodium pyruvate (Sigma #S8636) and penicillin (100 units/ml)/streptomycin (0.1 mg/ml) (Sigma #P4333) in 10% Fetal Bovine Serum (FBS) (Sigma #F0804). The cells were routinely passaged and grown to confluency (˜10^6 cells/ml). On the day of the experiment, THP-1 cells were harvested and resuspended into RPMI medium (without FBS). The cells were then counted and viability ([…]) checked by Trypan blue (Sigma #T8154). Appropriate dilutions were made to give a concentration of 625,000 cells/ml. To this diluted cell solution was added LPS (Sigma #L4524) to give a 1 μg/ml Final Assay Concentration (FAC). 40 μl of the final preparation was aliquoted into each well of a 96-well plate. The plate thus prepared was used for compound screening.
The following method step-by-step assay was followed for compound screening. • 1. Seed THP-1 cells (25,000 cells/well) containing 1.0 μg/ml LPS in 40 μl of RPMI medium (without FBS) in 96-well, black walled, clear bottom cell culture plates coated with poly-D-lysine (VWR #734-0317) • 2. Add 5 μl compound (8 points half-log dilution, with 10 μM top dose) or vehicle (DMSO 0.1% FAC) to the appropriate wells • 3. Incubate for 3 hrs at 37° C., 5% CO2 • 4. Add 5 μl nigericin (Sigma #N7143) (FAC 5 μM) to all wells • 5. Incubate for 1 hr at 37° C., 5% CO2 • 6. At the end of the incubation period, spin plates at 300×g for 3 mins and remove supernatant • 7. Then add 50 μl of resazurin (Sigma #R7017) (FAC 100 μM resazurin in RPMI medium without FBS) and incubate plates for a further 1-2 hrs at 37° C. and 5% CO2 • 8. Plates were read in an Envision reader at Ex 560 nm and Em 590 nm • 9. IC50 data is fitted to a non-linear regression equation (log inhibitor vs response-variable slope 4-parameters)

NLRP3 [2] = target: T1, NLRP3; assay: Human whole blood IL-1β release assay; format: cell-based; design: Plate out 80 μl of whole blood containing 1 μg/ml of LPS in 96-well, clear bottom cell culture plate; from tissue; host or cells: human whole blood from healthy donors; conditions: LPS 1 μg/ml, compound 3 hrs, nigericin 10 μM 1 hr, IL-1β by AlphaLisa, read-out: HWB IC50
Description: For systemic delivery, the ability to inhibit NLRP3 when the compounds are present within the bloodstream is of great importance. For this reason, the NLRP3 inhibitory activity of a number of compounds in human whole blood was investigated in accordance with the following protocol.
Human whole blood in Li-heparin tubes was obtained from healthy donors from a volunteer donor panel. • 1. Plate out 80 μl of whole blood containing 1 μg/ml of LPS in 96-well, clear bottom cell culture plate (Corning #3585) • 2. Add 10 μl compound (8 points half-log dilution with 10 μM top dose) or vehicle (DMSO 0.1% FAC) to the appropriate wells • 3. Incubate for 3 hrs at 37° C., 5% CO2 • 4. Add 10 μl nigericin (Sigma #N7143) (10 μM FAC) to all wells • 5. Incubate for 1 hr at 37° C., 5% CO2 • 6. At the end of the incubation period, spin plates at 300×g for 5 mins to pellet cells and remove […] of supernatant and add to 96-well v-bottom plates for IL-1β analysis (note: these plates containing the supernatants can be stored at −80° C. to be analysed at a later date) • 7. IL-1β was measured according to the manufacturer protocol (Perkin Elmer-AlphaLisa IL-1 Kit AL220F-5000) • 8. IC50 data is fitted to a non-linear regression equation (log inhibitor vs response-variable slope 4-parameters)

Row | IC50 (NLRP3 [1]) [nM] | IC50 (NLRP3 [2]) [nM] | Structure (SMILES)
1 | 500 to 1000 | 500 to 1000 | CN1CCOc2cc(ccn2)-c2ccc3c(c2NC(=O)NS(=O)(=O)c2ccn(n2)CC1)CCC3 [Example 8, 21-methyl-24-oxa-14λ^6-thia-11,13,18,21,26,30-hexaazapentacyclo-[23.3.1.1^15,18.0^2,10.0^5,9]triaconta-1(28),2,4,9,15(30),16,25(29),26-octaene-12,14,14-trione]
2 | ≤ 100 | 100 to 500 | CC1(C)COc2cc(ccn2)-c2ccc3c(c2NC(=O)NS(=O)(=O)c2nn1cc2F)CCC3 [Example 27, 16-fluoro-19,19-dimethyl-21-oxa-14λ^6-thia-11,13,18,23,27-pentaaza-pentacyclo[20.3.1.1^15,18.0^2,10.0^5,9]-heptacosa-1(25),2,4,9,15(27),16,22(26),23-octaene-12,14,14-trione, sodium salt]
3 | ≤ 100 | ≤ 100 | Cc1cc2c(c3c1-c1ccnc(c1)OCC(C)(C)n1ccc(n1)S(=O)(=O)NC(=O)N3)CCO2 [Example 37, 3,19,19-trimethyl-6,21-dioxa-14λ^6-thia-11,13,18,23,27-pentaaza-pentacyclo[20.3.1.1^15,18.0^2,10.0^5,9]-heptacosa-1(25),2(10),3,5(9),15(27),16,22(26),23-octaene-12,14,14-trione, sodium salt]
4 | 100 to 500 | 1000 to 5000 | O=C1Nc2c3c(cc4c2C(CCCCCn2ccc(n2)S(=O)(=O)N1)CC4)CCC3 (racemic) [Example 50, 5λ^6-thia-2,4,9,26-tetraazapentacyclo[13.9.1.1^6,9.0^18,25.0^20,24]hexacosa-1(24),6(26),7,18(25),19-pentaene-3,5,5-trione]
5 | 500 to 1000 | 1000 to 5000 | O=C1Nc2c(ccc3c2CCC3)-c2cccc(c2)OCCCCCn2ccc(n2)S(=O)(=O)N1 [Example 9, 24-oxa-14λ^6-thia-11,13,18,30-tetraazapentacyclo-[23.3.1.1^15,18.0^2,10.0^5,9]triaconta-1(28),2,4,9,15(30),16,25(29),26-octaene-12,14,14-trione]
6 | ≤ 100 | 100 to 500 | O=C1Nc2c(ccc3c2CCC3)-c2ccnc(c2)OCC2(CCOCC2)n2ccc(n2)S(=O)(=O)N1 [Example 39, 21′-oxa-14′λ^6-thia-11′,13′,18′,23′,27′-pentaaza-spiro[oxane-4,19′-pentacyclo-[20.3.1.1^15,18.0^2,10.0^5,9]-heptacosan]-1′(25′),2′,4′,9′,15′(27′),16′,22′(26′),23′-octaene-12′,14′,14′-trione]
7 | ≤ 100 | 100 to 500 | CC(C)c1cc(F)cc2c1NC(=O)NS(=O)(=O)c1nn(cc1F)CCOc1cc-2ccn1 [Example 44, 4,13-difluoro-6-(propan-2-yl)-18-oxa-11λ^6-thia-8,10,15,20,24-pentaazatetracyclo[17.3.1.1^12,15.0^2,7]-tetracosa-1(22),2(7),3,5,12(24),13,19(23),20-octaene-9,11,11-trione, sodium salt]
8 | ≤ 100 | 100 to 500 | O=C1Nc2c(ccc3c2CCC3)-c2cc(F)nc(c2)OCCn2cc(F)c(n2)S(=O)(=O)N1 [Example 42, 16,24-difluoro-21-oxa-14λ^6-thia-11,13,18,23,27-pentaazapentacyclo-[20.3.1.1^15,18.0^2,10.0^5,9]heptacosa-1(26),2,4,9,15(27),16,22,24-octaene-12,14,14-trione]
9 | 100 to 500 | 500 to 1000 | CC1(C)COCCOc2cc(ccn2)-c2ccc3c(c2NC(=O)NS(=O)(=O)c2ccn1n2)CCC3 [Example 12, 19,19-dimethyl-21,24-dioxa-14λ^6-thia-11,13,18,26,30-pentaazapentacyclo-[23.3.1.1^15,18.0^2,10.0^5,9]triaconta-1(28),2,4,9,15(30),16,25(29),26-octaene-12,14,14-trione]
10 | 100 to 500 | 500 to 1000 | CN1CCOc2cc(ccn2)-c2ccc3c(c2NC(=O)NS(=O)(=O)c2ccn(n2)C(C)(C)C1=O)CCC3 [Example 13, 19,19,21-trimethyl-24-oxa-14λ^6-thia-11,13,18,21,26,30-hexaazapentacyclo-[23.3.1.1^15,18.0^2,10.0^5,9]triaconta-1(28),2,4,9,15(30),16,25(29),26-octaene-12,14,14,2o-tetrone]
11 | 500 to 1000 | 500 to 1000 | O=C1Nc2c(ccc3c2CCC3)-c2ccnc(c2)OCCCCCS(=O)(=O)N1 [Example 19, 20-oxa-14λ^6-thia-11,13,22-triazatetracyclo-[19.3.1.0^2,10.0^5,9]triaconta-1(24),2,4,9,21(25),22-hexaene-12,14,14-trione]
12 | 100 to 500 | 100 to 500 | CC1(C)COc2nccc(c2F)-c2ccc3c(c2NC(=O)NS(=O)(=O)c2ccn1n2)CCC3 [Example 32, 26-fluoro-19,19-dimethyl-21-oxa-14λ^6-thia-11,13,18,23,27-pentaaza-pentacyclo[20.3.1.1^15,18.0^2,10.0^5,9]-heptacosa-1(26),2,4,9,15(27),16,22,24-octaene-12,14,14-trione, sodium salt]
13 | 100 to 500 | 500 to 1000 | O=C1Nc2c(ccc3c2CCC3)-c2ccnc(c2)OCCCCn2ccc(n2)S(=O)(=O)N1 [Example 4, 23-oxa-14λ^6-thia-11,13,18,25,29-pentaazapentacyclo-[22.3.1.1^15,18.0^2,10.0^5,9]nonacosa-1(28),2(10),3,5(9),15(29),16,24,26-octaene-12,14,14-trione]
14 | ≤ 100 | 100 to 500 | O=C1Nc2c(ccc3c2CCC3)-c2ccnc(c2)OCCn2ccc(n2)S(=O)(=O)N1 [Example 20, 21-oxa-14λ^6-thia-11,13,18,23,27-pentaazapentacyclo-[20.3.1.1^15,18.0^2,10.0^5,9]heptacosa-1(25),2,4,9,15(27),16,22(26),23-octaene-12,14,14-trione]
15 | 100 to 500 | 1000 to 5000 | CN1CCCOc2cc(ccn2)-c2ccc3c(c2NC(=O)NS(=O)(=O)c2cc(n(C4CC4)n2)C1)CCC3 [Example 14, 17-cyclopropyl-20-methyl-24-oxa-14λ^6-thia-11,13,16,17,20, 26-hexaazapentacyclo-[23.3.1.1^15,18.0^2,10.0^5,9]triaconta-1(28),2,4,9,15,18(30),25(29),26-octaene-12,14,14-trione]
